One assay concerns the target MCL-1 (Homo sapiens, UniProt Q07820). Kind of assay: Protein-protein interaction assay MCL-1/Noxa BH3 peptide (MCL-1 assay), TR-FRET. The assay is classed as binding. Conditions: MBP-MCL-1 / Noxa BH3-derived peptide, median. In short, it runs like this: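 Inhibition values were normalized between DMSO controls with all reagents and controls lacking MCL-1. The binding competition used 1 nM MBP-MCL-1 in pH 7 Tris buffer containing 50 mM KF and 100 mM NaCl, with a 10 min compound preincubation at 22 °C.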
In general terms: TR-FRET usually uses a lanthanide donor and a delayed reading to cut background.

Assay [1] deals with SUDHL10. Kind of assay: Anti-proliferative effect (CellTiter-Glo, 72 h), SUDHL10. Type of assay: cell-based. Conditions: Homo sapiens, SU-DHL10, 72 h, SUDHL10 cells, antiproliferation, 72 h, median, read-out: Antiproli SUDHL10 [M] (median). In short, it runs like this: (§1)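 Luminescence from CellTiter-Glo, read 10 min after reagent addition, reports viable cell content after 72 h of compound treatment at 37 °C. A reference plate read at day 0 gives the starting baseline.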
For orientation: Cellular ATP, detected with luciferase, serves as a proxy for viable cell number.

Assay [2] deals with SUDHL10. Kind of assay: Induction of cytotoxicity (CellTiter-Glo, 5 h), SUDHL10. As to conditions: Homo sapiens, SU-DHL10, 5 h, read-out: Cytotox SUDHL10 [M] (median), SUDHL10 cells, cytotoxicity induction, CellTiter-Glo, 5 h, median.
The test system of assay [3] is SUDHL5. Kind of assay: Induction of cytotoxicity (CellTiter-Glo, 5 h), SUDHL5. As to conditions: Homo sapiens, SU-DHL-5, 5 h, read-out: Cytotox SUDHL5 [M] (median), SUDHL5 cells, cytotoxicity induction, CellTiter-Glo, 5 h, median.
The subject of assay [4] is SUDHL5. Kind of assay: Anti-proliferative effect (CellTiter-Glo, 72 h), SUDHL5. As to conditions: Homo sapiens, SU-DHL-5, 72 h, SUDHL5 cells, antiproliferation, 72 h, median, read-out: Antiproli SUDHL5 [M] (median). Type of assay: cell-based. In short, it runs like this:
as §1

Assay [5] relates to SUDHL5. Kind of assay: Induction of caspase-3/7 activity (Caspase-Glo 3/7), SUDHL5. Type of assay: cell-based. Conditions: Homo sapiens, SU-DHL-5, 3 h, caspase-3/7 induction, SUDHL5 cells, 3 h treatment; median. In short, it runs like this:
(§2)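 Apoptosis induction measured as caspase-3/7 activity (Caspase-Glo 3/7) in DLBCL lines after 3 h treatment at 37 °C; EC50 derived relative to the reference compound's maximal induction, with C0 fixed at 1.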

A further assay has as its system A2780. Kind of assay: Anti-proliferative effect (CellTiter-Glo, 72 h), A2780. Type of assay: cell-based. Conditions: Homo sapiens, A2780, 72 h, A2780 cells, median, read-out: IC50 antiproliferation assay A2780 [M] (median). In short, it runs like this: as §1
Assay [6] concerns SUDHL10. Kind of assay: Induction of caspase-3/7 activity (Caspase-Glo 3/7), SUDHL10. The assay is classed as cell-based. Conditions: Homo sapiens, SU-DHL10, 3 h, caspase-3/7 induction, SUDHL10 cells, 3 h treatment; median. In short, it runs like this:
as §2

The source of these data is patent publication US10981932B2, “Macrocyclic indole derivatives” (Bayer Aktiengesellschaft, priority 2016, dated 2021).

Chain of MCL-1 (Q07820 whole entry): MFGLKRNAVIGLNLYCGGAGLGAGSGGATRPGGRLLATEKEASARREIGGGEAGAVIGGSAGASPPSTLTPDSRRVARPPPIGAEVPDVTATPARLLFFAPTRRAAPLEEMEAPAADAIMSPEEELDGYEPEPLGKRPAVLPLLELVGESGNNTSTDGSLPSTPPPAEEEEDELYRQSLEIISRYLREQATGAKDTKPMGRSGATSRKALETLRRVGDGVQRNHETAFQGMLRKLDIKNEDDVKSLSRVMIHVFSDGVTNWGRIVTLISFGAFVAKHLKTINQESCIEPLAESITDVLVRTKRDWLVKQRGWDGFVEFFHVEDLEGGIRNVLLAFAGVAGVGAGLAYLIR

In general, EC50 refers to the concentration giving half of the maximal effect. For `CN(C)Cc1nn(C)c2c1-c1cccc3c(CCCOc4cccc5ccccc45)c(C(=O)O)n(c13)CCCCOC2` (racemic) [Example 331, (rac)-3-[(dimethylamino)methyl]-1-methyl-7-[3-(naphthalen-1-yloxy)propyl]-1,10,11,12,13,15-hexahydropyrazolo[4′,3′:9,10][1,6]oxazacycloundecino[8,7,6-hi]indole-8-carboxylic Acid], the IC50 at MCL-1 is 0.185 µM; in the assay on SUDHL10 [1], over 3.3e-05 M; with SUDHL10 [2] it was over 3.3e-05 M; in the assay on SUDHL5 [3], over 3.3e-05 M; in the assay on SUDHL5 [4], over 3.3e-05 M; with A2780, over 3.3e-05 M. Moreover, the concentration for a half-maximal effect (EC50) in the assay on SUDHL5 [5] and in the assay on SUDHL10 [6] was over 33 µM each time.

For the molecule `Cn1nc(CN2CCCCC2)c2c1COCCCCn1c(C(=O)O)c(CCCOc3cccc4ccccc34)c3cccc-2c31` (racemic) [Example 332, (rac)-1-methyl-7-[3-(naphthalen-1-yloxy)propyl]-3-(piperidin-1-ylmethyl)-1,10,11,12,13,15-hexahydropyrazolo[4′,3′:9,10][1,6]oxazacycloundecino[8,7,6-hi]indole-8-carboxylic Acid], the IC50 against MCL-1 was 0.203 µM; with SUDHL10 [1] it was 2.02e-05 M; in the assay on SUDHL10 [2], over 3.3e-05 M; in the assay on SUDHL5 [3] it was 1.94e-05 M; in the assay with SUDHL5 [4], 9.13e-06 M; in the assay with A2780, over 3.3e-05 M. The EC50 was 18.9 µM with SUDHL5 [5] and over 33 µM in the assay with SUDHL10 [6].

Regarding `Cn1nc(CN2CCCC2)c2c1COCCCCn1c(C(=O)O)c(CCCOc3cccc4ccccc34)c3cccc-2c31` (racemic) [Example 335, (rac)-1-methyl-7-[3-(naphthalen-1-yloxy)propyl]-3-(pyrrolidin-1-ylmethyl)-1,10,11,12,13,15-hexahydropyrazolo[4′3′:9,10][1,6]oxazacycloundecino[8,7,6-hi]indole-8-carboxylic Acid], the IC50 at MCL-1 was determined as 0.18 µM; in the assay with SUDHL10 [1], 2.24e-05 M; in the assay on SUDHL10 [2], 2.77e-05 M; with SUDHL5 [3], 2.57e-05 M; in the assay with SUDHL5 [4], 1.93e-05 M; with A2780, 2.35e-05 M. For the same molecule, the results for the concentration for a half-maximal effect (EC50) with SUDHL5 [5] and with SUDHL10 [6] were 27.2 µM and over 33 µM, respectively.

As to `Cn1nc(CN)c2c1COCCCCn1c(C(=O)O)c(CCCOc3cccc4ccccc34)c3cccc-2c31` (racemic) [Example 338, (rac)-3-(aminomethyl)-1-methyl-7-[3-(naphthalen-1-yloxy)propyl]-1,10,11,12,13,15-hexahydropyrazolo[4′,3′:9,10][1,6]oxazacycloundecino[8,7,6-hi]indole-8-carboxylic Acid], the IC50 was 0.048 µM against MCL-1; over 3.3e-05 M in the assay on SUDHL10 [1]; over 3.3e-05 M in the assay with SUDHL10 [2]; over 3.3e-05 M with SUDHL5 [3]; over 3.3e-05 M in the assay with SUDHL5 [4]; over 3.3e-05 M in the assay with A2780. Also, the EC50 in the assay on SUDHL5 [5] and in the assay with SUDHL10 [6] was over 33 µM throughout.

As to `CC(=O)NCc1nn(C)c2c1-c1cccc3c(CCCOc4cccc5ccccc45)c(C(=O)O)n(c13)CCCCOC2` (racemic) [Example 339, (rac)-3-[(acetylamino)methyl]-1-methyl-7-[3-(naphthalen-1-yloxy)propyl]-1,10,11,12,13,15-hexahydropyrazolo[4′,3′:9,10][1,6]oxazacycloundecino[8,7,6-hi]indole-8-carboxylic Acid], the IC50 against MCL-1 is 0.032 µM; with SUDHL10 [1], over 3.3e-05 M; in the assay with SUDHL10 [2], over 3.3e-05 M; with SUDHL5 [3], over 3.3e-05 M; in the assay with SUDHL5 [4], over 3.3e-05 M; in the assay with A2780, over 3.3e-05 M. Besides, the concentration for a half-maximal effect (EC50) with SUDHL5 [5] and with SUDHL10 [6] was over 33 µM each time.

Take `CC(=O)N(C)Cc1nn(C)c2c1-c1cccc3c(CCCOc4cccc5ccccc45)c(C(=O)O)n(c13)CCCCOC2` (racemic) [Example 342, (rac)-3-{[acetyl(methyl)amino]methyl}-1-methyl-7-[3-(naphthalen-1-yloxy)propyl]-1,10,11,12,13,15-hexahydropyrazolo[4′,3′:9,10][1,6]oxazacycloundecino[8,7,6-hi]indole-8-carboxylic Acid]: the IC50 against MCL-1 was 0.0451 µM; in the assay with SUDHL10 [1] it was 1.9e-05 M; in the assay on SUDHL10 [2] it was over 3.3e-05 M; in the assay on SUDHL5 [3], over 3.3e-05 M; in the assay on SUDHL5 [4], 3.15e-05 M; in the assay on A2780 it was over 3.3e-05 M. Also, the EC50 in the assay with SUDHL5 [5] was 25 µM; in the assay with SUDHL10 [6], over 33 µM.

`Cn1nc(COCc2ccc(C(N)=O)cc2)c2c1COCCCCn1c(C(=O)O)c(CCCOc3cccc4ccccc34)c3cccc-2c31` (racemic) [Example 346, (rac)-3-{[(4-carbamoylbenzyl)oxy]methyl}-1-methyl-7-[3-(naphthalen-1-yloxy)propyl]-1,10,11,12,13,15-hexahydropyrazolo[4′,3′:9,10][1,6]oxazacycloundecino[8,7,6-hi]indole-8-carboxylic Acid]: the IC50 on MCL-1 was 0.0142 µM; in the assay with SUDHL10 [1], 3.54e-06 M; in the assay with SUDHL10 [2] it was over 3.3e-05 M; in the assay with SUDHL5 [3], 2.02e-05 M; in the assay on SUDHL5 [4], 9.09e-06 M; with A2780, 2.32e-05 M. For the same molecule, the EC50 with SUDHL5 [5] came to 25.1 µM; in the assay on SUDHL10 [6], 32.4 µM.

As for `COc1ccc2c(CCCOc3cccc4ccccc34)c(C(=O)O)n3c2c1-c1c(nn(C)c1C)COCCCC3` (racemic) [Example 349, (rac)-4-methoxy-2,3-dimethyl-7-[3-(naphthalen-1-yloxy)propyl]-2,10,11,12,13,15-hexahydropyrazolo[4′,3′:9,10][1,6]oxazacycloundecino[8,7,6-hi]indole-8-carboxylic Acid], the IC50 against MCL-1 was 0.0819 µM; in the assay with SUDHL10 [1] it was 1.67e-05 M; with SUDHL10 [2] it was over 3.3e-05 M; with SUDHL5 [3] it was 2.43e-05 M; with SUDHL5 [4] it was 1.86e-05 M; with A2780, over 3.3e-05 M. The figures for the EC50 in the assay on SUDHL5 [5] and with SUDHL10 [6] were 31 µM and over 33 µM, respectively.

For the molecule `CN1CCN(Cc2c3c(nn2C)COCCCCn2c(C(=O)O)c(CCCOc4cccc5ccccc45)c4cccc-3c42)CC1` (racemic) [Example 359, (rac)-2-methyl-3-[(4-methylpiperazin-1-yl)methyl]-7-[3-(naphthalen-1-yloxy)propyl]-2,10,11,12,13,15-hexahydropyrazolo[4′,3′:9,10][1,6]oxazacycloundecino[8,7,6-hi]indole-8-carboxylic Acid], the IC50 against MCL-1 is 0.075 µM; with SUDHL10 [1], over 3.3e-05 M; in the assay on SUDHL10 [2], over 3.3e-05 M; in the assay on SUDHL5 [3], over 3.3e-05 M; in the assay on SUDHL5 [4], over 3.3e-05 M; in the assay with A2780 it was over 3.3e-05 M. The EC50 in the assay with SUDHL5 [5] and in the assay on SUDHL10 [6] was over 33 µM in each case.

`CN1CCCn2c(C(=O)O)c(CCCOc3cccc4ccccc34)c3cccc(c32)-c2c(nn3c2OCCC3)C1` (racemic) [Example 360, (rac)-7-methyl-1-[3-(naphthalen-1-yloxy)propyl]-5,6,7,8,12,13-hexahydro-4H,11H-[1,3]oxazino[3″,2″:1′,5′]pyrazolo[3′,4′:7,8][1,5]diazecino[9,10,1-hi]indole-2-carboxylic Acid]: the IC50 at MCL-1 was 0.0198 µM; in the assay with SUDHL10 [1] it was 1.44e-05 M; in the assay with SUDHL10 [2], over 3.3e-05 M; with SUDHL5 [3] it was over 3.3e-05 M; with SUDHL5 [4], 2.12e-05 M; in the assay on A2780, over 3.3e-05 M. For the same molecule, the values for the concentration giving a half-maximal response (EC50) in the assay with SUDHL5 [5] and in the assay with SUDHL10 [6] were 32.6 µM and over 33 µM, respectively.

Consider `CN1CCCn2c(C(=O)O)c(CCCOc3cccc4ccccc34)c3cccc(c32)-c2c(nn3c2CCCC3)C1` (racemic) [Example 361, (rac)-7-methyl-1-[3-(naphthalen-1-yloxy)propyl]-5,6,7,8,11,12,13,14-octahydro-4H-pyrido[1″,2″:1′,5′]pyrazolo[3′,4′:7,8][1,5]diazecino[9,10,1-hi]indole-2-carboxylic Acid], for which the IC50 on MCL-1 is 0.0248 µM; in the assay on SUDHL10 [1], 7.7e-06 M; in the assay on SUDHL10 [2], 1.84e-05 M; with SUDHL5 [3], 1.09e-05 M; in the assay with SUDHL5 [4], 3.66e-06 M; with A2780 it was over 3.3e-05 M. Besides, the half-maximal effective concentration (EC50) with SUDHL5 [5] was 10.1 µM; in the assay on SUDHL10 [6], over 33 µM.
